In US6174877A, “Carbapenem compound, their production and use” (Takeda Chemical Industries, Ltd., priority 1996, dated 2001):
Values after ≈ are worked out from the molar mass of the structure shown. Like-named read-outs stand apart in the source and are kept apart here.

Legend:
[1] = system: E. coli NHIJ JC-2; assay: Minimum inhibitory concentration (MIC) by agar dilution method; format: cell-based; conditions: Escherichia coli
Protocol: (§1) Minimum Inhibitory Concentration (MIC)
(§2) The minimum inhibitory concentration [MIC (unit: (μg/ml)] of the test compound was determined by an agar dilution method. More specifically, 0.25 ml of an aqueous solution of the test compound diluted stepwise was put into a Petri dish, which was then mixed with 9.75 ml of Muller-Hinton agar containing fildis enrichment [F-MH medium. fildis enrichment (5%)]). On thus-prepared mixed agar plate, a suspension of the test bacteria (about 10^6 CFU/ml) was spread, which was incubated at 37° C. overnight.

[2] = system: H. influenzae NN400; assay: as above; format: cell-based; conditions: Haemophilus influenzae
Protocol: as §1, §2

[3] = NHIJJC2, strain E. coli NHIJ JC-2, medium F-MH, 10^6 CFU/ml, 37° C. overnight, read-out: MIC (μg/ml) 10^6 CFU/ml E. coli NHIJ JC-2
[4] = strain H. influenzae NN400, medium F-MH, 10^6 CFU/ml, 37° C. overnight, read-out: MIC (μg/ml) 10^6 CFU/ml H. influenzae NN400
[5] = NHIJJC2, read-out: MIC (μg/ml) 10^6 CFU/ml E. coli NHIJ JC-2
[6] = NN400, read-out: MIC (μg/ml) 10^6 CFU/ml H. influenzae NN400

Row | SMILES | MIC [1, 3] [µg/mL] | MIC [2, 4] [µg/mL] | MIC [1, 5] [µg/mL] | MIC [2, 6] [µg/mL]
1 | CC(Cc1cccnn1)SC1=C(C(=O)O)N2C(=O)[C@H]([C@@H](C)O)[C@H]2[C@H]1C (single isomer, unassigned; diastereomer-2) [Working Example 17] | 0.1 (≈ 0.275 µM) | 0.1 (≈ 0.275 µM) |  | 
2 | C[C@@H](O)[C@H]1C(=O)N2C(C(=O)[O-])=C(SCCc3cc[nH]n3)[C@H](C)[C@H]12.[Na+] [Working Example 3-3, Sodium (4R,5S,6S)-6-[(1R)-1-hydroxyethyl]-4-methyl-7-oxo-3-[2-(3-pyrazolyl)ethylthio]-1-azabicyclo[3.2.0]hept-2-ene-2-carboxylate] |  |  | 0.1 | 0.1
3 | C[C@@H](O)[C@H]1C(=O)N2C(C(=O)O)=C(SCCc3c[nH]nn3)[C@H](C)[C@H]12 [Working Example 2-3, Sodium (4R,5S,6S)-6-[(1R)-1-hydroxyethyl]-4-methyl-7-oxo-3-[2-(1,2,3-triazol-4-yl)ethylthio]-1-azabicyclo[3.2.0]hept-2-ene-carboxylate] | 0.025 | 0.1 |  | 
4 | C[C@@H](O)[C@H]1C(=O)N2C(C(=O)[O-])=C(SCCc3cn4c(NC(N)=O)cccc4n3)[C@H](C)[C@H]12.[Na+] [Working Example 33-2, Sodium (4R,5S,6S)-6-[(1R)-1-hydroxyethyl]-4-methyl-7-oxo-3-[2-(5-ureidoimidazo[1,2-a]pyridin-2-yl)ethylthio]-1-azabicyclo[3.2.0]hept-2-ene-2-carboxylate] |  |  | 0.2 | 0.1
5 | C[C@@H](O)[C@H]1C(=O)N2C(C(=O)O)=C(SCCN=CN)C[C@H]12 [Imipenem, reference compound] | 0.1 (≈ 0.334 µM) | 0.78 (≈ 2.61 µM) |  | 
6 | C[C@@H](O)[C@H]1C(=O)N2C(C(=O)[O-])=C(SCCc3cn4cccnc4n3)[C@H](C)[C@H]12.[Na+] [Working Example 32-2, Sodium (4R,5S,6S)-6-[(1R)-1-hydroxyethyl]-3-[2-(imidazo[1,2-a]pyrimidin-2-yl)ethylthio]-4-methyl-7-oxo-1-azabicyclo[3.2.0]hept-2-ene-2-carboxylate] |  |  | 0.2 | 0.05
7 | C[C@@H](O)[C@H]1C(=O)N2C(C(=O)[O-])=C(SCCc3cn4ccccc4n3)[C@H](C)[C@H]12.[Na+] [Working Example 18-2, Sodium (4R,5S,6S)-6-[(R)-1-hydroxyethyl]-3-[2-(imidazo[1,2-a]pyridin-2-yl)ethylthio]-4-methyl-7-oxo-1-azabicyclo[3.2.0]hept-2-ene-2-carboxylate] |  |  | 0.2 | 0.1
8 | C[C@@H](O)[C@H]1C(=O)N2C(C(=O)O)=C(SCCc3cn4cc(N)ccc4n3)[C@H](C)[C@H]12 [Working Example 29-2, Sodium (4R,5S,6S)-3-[2-(6-aminoimidazo[1,2-a]pyridin-2-yl)ethylthio]-6-[(1R)-1-hydroxyethyl]-4-methyl-7-oxo-1-azabicyclo[3.2.0]hept-2-ene-carboxylate] | 0.2 | 0.05 |  | 
